The values below come from ChEMBL document CHEMBL1151997, “Structural analogues of the michellamine anti-HIV agents. Importance of the tetrahydroisoquinoline rings for biological activity” (Bioorg Med Chem Lett, 1997).

The structures appear in SMILES notation.

Test [1] deals with Human immunodeficiency virus 1. The test is described as follows: In vitro anti-HIV-1 activity in CEM-SS cytoprotection assay; No activity. The class given is functional, organism-based.
A further test relates to CEM-SS. The test is described as follows: In vitro cytotoxicity in CEM-SS cell line up to a concentration of 100 uM. The following applies: Homo sapiens. The class given is functional, cell-based.

For the compound `COc1cccc2c(-c3ccc(O)cc3O)cc(-c3cc(-c4ccc(O)cc4O)c4cccc(OC)c4c3O)c(O)c12`, in test [1], the EC50 result is on record as “Not Active”. Moreover, in the test with CEM-SS, the IC50 (usually the concentration that inhibits the measured activity by half) worked out at 2.2 µM.
On to `COc1cc(C)cc2c(-c3cccs3)cc(-c3cc(-c4cccs4)c4cc(C)cc(OC)c4c3O)c(O)c12`, for which the EC50 result in test [1] is reported as “Not Active”. For the same compound, in the test on CEM-SS, the half-maximal inhibitory concentration (IC50) was greater than 100 µM.
For `COc1cccc2c(-c3ccc4c(c3)OCO4)cc(-c3cc(-c4ccc5c(c4)OCO5)c4cccc(OC)c4c3O)c(O)c12`, in that order: “Not Active” and greater than 100 µM.
For `COc1cc(C)cc2c(-c3ccc4c(c3)OCO4)cc(-c3cc(-c4ccc5c(c4)OCO5)c4cc(C)cc(OC)c4c3O)c(O)c12`, in that order: “Not Active” and greater than 100 µM.
For `COc1cccc2c(-c3cccc(N)c3)cc(-c3cc(-c4cccc(N)c4)c4cccc(OC)c4c3O)c(O)c12`, in that order: “Not Active” and greater than 100 µM.
For the compound `COc1cc(OC)c2c(O)c(-c3cc(-c4cccc([N+](=O)[O-])c4)c4cc(OC)cc(OC)c4c3O)cc(-c3cccc([N+](=O)[O-])c3)c2c1`, the EC50 entry in test [1] is reported as “Not Active”. The compound also gave a 50% inhibitory concentration (IC50) in the test on CEM-SS greater than 100 µM.
Consider `COc1cc(OC)c2c(O)c(-c3cc(-c4ccc5c(c4)OCO5)c4cc(OC)cc(OC)c4c3O)cc(-c3ccc4c(c3)OCO4)c2c1`, for which the EC50 result in test [1] is listed as “Not Active”. In the test on CEM-SS, the half-inhibitory concentration (IC50) was greater than 100 µM.
In the case of `COc1cc(OC)c2c(O)c(-c3cc(-c4ccccc4)c4cc(OC)cc(OC)c4c3O)cc(-c3ccccc3)c2c1`, the EC50 result in test [1] is recorded as “Not Active”. Besides, the half-inhibitory concentration (IC50) in the test with CEM-SS was greater than 100 µM.
Take `COc1cccc2c(-c3cccs3)cc(-c3cc(-c4cccs4)c4cccc(OC)c4c3O)c(O)c12`: the EC50 result in test [1] was “Not Active”. Moreover, the concentration for half-maximal inhibition (IC50) with CEM-SS was greater than 100 µM.
Taken in the same sequence, the figures for `COc1cc(OC)c2c(O)c(-c3cc(-c4cccs4)c4cc(OC)cc(OC)c4c3O)cc(-c3cccs3)c2c1` were “Not Active” and greater than 100 µM.
For `COc1cc(C)cc2c(-c3cccc([N+](=O)[O-])c3)cc(-c3cc(-c4cccc([N+](=O)[O-])c4)c4cc(C)cc(OC)c4c3O)c(O)c12`, in that order: “Not Active” and greater than 100 µM.
Regarding `COc1cc(C)cc2c(-c3ccccc3)cc(-c3cc(-c4ccccc4)c4cc(C)cc(OC)c4c3O)c(O)c12`, the EC50 result in test [1] is reported as “Not Active”. For the same compound, the half-maximal inhibitory concentration (IC50) in the test with CEM-SS is greater than 100 µM.
Consider `COc1cc(C)cc2c(-c3ccc(O)cc3O)cc(-c3cc(-c4ccc(O)cc4O)c4cc(C)cc(OC)c4c3O)c(O)c12`, for which the EC50 entry in test [1] was “Not Active”. This compound yielded a half-inhibitory concentration (IC50) in the test on CEM-SS of 2.6 µM.
For `COc1cc(C)cc2c(-c3cccc(N)c3)cc(-c3cc(-c4cccc(N)c4)c4cc(C)cc(OC)c4c3O)c(O)c12`, in that order: “Not Active” and greater than 100 µM.
Consider `COc1cccc2c(-c3ccccc3)cc(-c3cc(-c4ccccc4)c4cccc(OC)c4c3O)c(O)c12`, for which the EC50 entry in test [1] is “Not Active”. The compound also came in with a concentration for half-maximal inhibition (IC50) in the test with CEM-SS greater than 100 µM.
`COc1cc(OC)c2c(O)c(-c3cc(-c4ccc(O)cc4O)c4cc(OC)cc(OC)c4c3O)cc(-c3ccc(O)cc3O)c2c1`: the EC50 result in test [1] is reported as “Not Active”. The compound also yielded an IC50 in the test with CEM-SS of 3.9 µM.
Consider `COc1cc(OC)c2c(O)c(-c3cc(-c4cccc(N)c4)c4cc(OC)cc(OC)c4c3O)cc(-c3cccc(N)c3)c2c1`, for which the EC50 entry in test [1] is given as “Not Active”. This compound returned a half-inhibitory concentration (IC50) in the test on CEM-SS greater than 100 µM.
Take `COc1cccc2c(-c3cccc([N+](=O)[O-])c3)cc(-c3cc(-c4cccc([N+](=O)[O-])c4)c4cccc(OC)c4c3O)c(O)c12`: the EC50 entry in test [1] is given as “Not Active”. Also, the 50% inhibitory concentration (IC50) in the test on CEM-SS is greater than 100 µM.
